Like-named read-outs stand apart in the source and are kept apart here.
Tests used:
[1] = target: T1, CHO cells over-expressing the EP3 receptor (Homo sapiens, UniProt P43115); assay: CHO cell cAMP assay; EP3 cAMP antagonist dose response (sulprostone reference), HTRF; format: cell-based; conditions: sulprostone 700 nM (EC80) and FSK 2 μM (EC70); read-out: CHO_cAMP IC50
T1 construct: expressed in transfected cells; host or cells: CHO cells
T1 sequence (P43115 1-390): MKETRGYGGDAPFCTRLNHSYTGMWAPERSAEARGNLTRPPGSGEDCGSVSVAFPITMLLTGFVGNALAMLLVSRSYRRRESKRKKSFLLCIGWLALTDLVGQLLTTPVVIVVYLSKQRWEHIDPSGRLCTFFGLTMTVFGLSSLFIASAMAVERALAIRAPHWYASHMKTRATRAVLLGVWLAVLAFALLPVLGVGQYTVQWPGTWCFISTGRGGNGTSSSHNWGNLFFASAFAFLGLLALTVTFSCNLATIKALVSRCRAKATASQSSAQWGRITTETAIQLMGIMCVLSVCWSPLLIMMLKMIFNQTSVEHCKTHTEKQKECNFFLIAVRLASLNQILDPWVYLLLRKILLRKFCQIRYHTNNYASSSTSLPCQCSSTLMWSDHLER
Procedure, shortened: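 EP3-overexpressing CHO cells pre-incubated with test compound, then stimulated 30 min at 37 °C with FSK (2 μM, EC70) plus sulprostone (700 nM, EC80); antagonism seen as restored cAMP. cAMP measured by HTRF 665/615 ratio, converted via on-plate standard curve. IC50 from Hill fit of 11-point dosing.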

[2] = target: T2, EP3 membrane (EP3 receptor) (Homo sapiens, UniProt P43115); assay: [3H]-PGE2 binding; EP3 competition binding (SPA)
T2 construct: purchased Millipore HTS092M
T2 sequence (P43115 1-390): T1 sequence (P43115 1-390)
Procedure, shortened: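 SPA competition at room temperature, 2 h: EP3 membranes 2 μg/well, 2 nM [3H]-PGE2, 0.1% DMSO, in Tris/MgCl2/EDTA buffer pH 7.4. Compounds in 1:3 serial dilution; scintillation read; Ki by one-site nonlinear fit.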

Row | SMILES | IC50 [1] [µM] | Ki [2] [nM] | Ki ([2]; unit nM) [nM]
1 | CN(C/C(F)=C1\COCc2cnn(Cc3ccc(Cl)cc3Cl)c21)C(=O)NS(=O)(=O)c1cc(Cl)c(Cl)s1 [Compound #74, (E)-4,5-dichloro-N-((2-(1-(2,4-dichlorobenzyl)-1,4-dihydropyrano[4,3-c]pyrazol-7(6H)-ylidene)-2-fluoroethyl)(methyl)carbamoyl)thiophene-2-sulfonamide] | 0.031 | 35 | –
2 | O=C(NC/C=C1\CCCc2cnn(-c3cccc(Br)c3)c21)NS(=O)(=O)c1cc(Cl)c(Cl)s1 [Compound #77, (E)-N-((2-(1-(3-bromophenyl)-1,4,5,6-tetrahydro-7H-indazol-7-ylidene)ethyl)carbamoyl)-4,5-dichlorothiophene-2-sulfonamide] | 0.258 | 12 | –
3 | CC(C)Cn1ncc2c1/C(=C/CNC(=O)NS(=O)(=O)c1ccc(Cl)cc1)CCC2 [Compound #80, (E)-4-chloro-N-((2-(1-isobutyl-1,4,5,6-tetrahydro-7H-indazol-7-ylidene)ethyl)carbamoyl)benzenesulfonamide] | 4.4 | 920 | –
4 | O=C(NS(=O)(=O)c1ccc(Cl)cc1)OC/C=C1\c2c(cnn2Cc2ccc(Cl)cc2Cl)CCC1(F)F [Compound #81, (E)-2-(1-(2,4-dichlorobenzyl)-6,6-difluoro-1,4,5,6-tetrahydro-7H-indazol-7-ylidene)ethyl ((4-chlorophenyl)sulfonyl)carbamate] | 14.1 | > 10000 | –
5 | O=C(NS(=O)(=O)c1ccc(Cl)cc1)OC/C=C1/c2c(cnn2Cc2ccc(Cl)cc2Cl)CCC1(F)F [Compound #82, (Z)-2-(1-(2,4-dichlorobenzyl)-6,6-difluoro-1,4,5,6-tetrahydro-7H-indazol-7-ylidene)ethyl ((4-chlorophenyl)sulfonyl)carbamate] | 2.6 | 106 | –
6 | O=C(NC/C(F)=C1\COCc2cnn(Cc3ccc(Cl)cc3Cl)c21)NS(=O)(=O)c1ccc(Cl)cc1 [Compound #83, (E)-4-chloro-N-((2-(1-(2,4-dichlorobenzyl)-1,4-dihydropyrano[4,3-c]pyrazol-7(6H)-ylidene)-2-fluoroethyl)carbamoyl)benzenesulfonamide] | 0.266 | 97 | –
7 | O=C(NC/C(F)=C1\CCCc2cnn(Cc3ccc(Cl)cc3Cl)c21)NS(=O)(=O)c1ccc(Cl)cc1 [Compound #86, (Z)-4-chloro-N-((2-(1-(2,4-dichlorobenzyl)-1,4,5,6-tetrahydro-7H-indazol-7-ylidene)-2-fluoroethyl)carbamoyl)benzenesulfonamide] | 0.069 | 28 | –
8 | O=C(NC/C=C1\CCCc2cn(Cc3ccc4ccccc4c3)nc21)NS(=O)(=O)c1cc(Cl)c(Cl)s1 [Compound #87, (E)-4,5-dichloro-N-((2-(2-(naphthalen-2-ylmethyl)-2,4,5,6-tetrahydro-7H-indazol-7-ylidene)ethyl)carbamoyl)thiophene-2-sulfonamide] | 0.435 | 110 | –
9 | O=C(NC/C=C1\CCCc2cnn(Cc3ccc4ccccc4c3)c21)NS(=O)(=O)c1cc(Cl)c(Cl)s1 [Compound #88, (E)-4,5-dichloro-N-((2-(1-(naphthalen-2-ylmethyl)-1,4,5,6-tetrahydro-7H-indazol-7-ylidene)ethyl)carbamoyl)thiophene-2-sulfonamide] | 0.554 | 104 | –
10 | COc1ccc(Cl)cc1S(=O)(=O)NC(=O)NC/C(F)=C1\CCCc2cnn(Cc3ccc(Cl)cc3Cl)c21 [Compound #89, (Z)-5-chloro-N-((2-(1-(2,4-dichlorobenzyl)-1,4,5,6-tetrahydro-7H-indazol-7-ylidene)-2-fluoroethyl)carbamoyl)-2-methoxybenzenesulfonamide] | 0.16 | 26 | –
11 | COc1ccc(F)cc1S(=O)(=O)NC(=O)NC/C(F)=C1\CCCc2cnn(Cc3ccc(Cl)cc3Cl)c21 [Compound #90, (Z)—N-((2-(1-(2,4-dichlorobenzyl)-1,4,5,6-tetrahydro-7H-indazol-7-ylidene)-2-fluoroethyl)carbamoyl)-5-fluoro-2-methoxybenzenesulfonamide] | 0.272 | 37 | –
12 | O=C(NC/C(F)=C1\CCCc2cnn(Cc3ccc(Cl)cc3Cl)c21)NS(=O)(=O)c1cccc(Cl)c1 [Compound #91, (Z)-3-chloro-N-((2-(1-(2,4-dichlorobenzyl)-1,4,5,6-tetrahydro-7H-indazol-7-ylidene)-2-fluoroethyl)carbamoyl)benzenesulfonamide] | 0.034 | 18 | –
13 | O=C(NC/C=C1\CCCc2cnn(-c3cccc(C(F)(F)F)c3)c21)NS(=O)(=O)c1cc(Cl)c(Cl)s1 [Compound #92, (E)-4,5-dichloro-N-((2-(1-(3-(trifluoromethyl)phenyl)-1,4,5,6-tetrahydro-7H-indazol-7-ylidene)ethyl)carbamoyl)thiophene-2-sulfonamide] | 0.214 | 17 | –
14 | O=C(NC/C=C1\CCCc2cnn(-c3ncc(Br)cn3)c21)NS(=O)(=O)c1ccc(Cl)cc1 [Compound #94, (E)-N-((2-(1-(5-bromopyrimidin-2-yl)-1,4,5,6-tetrahydro-7H-indazol-7-ylidene)ethyl)carbamoyl)-4-chlorobenzenesulfonamide] | 11.1 | 750 | –
15 | O=C(NC/C(F)=C1/CCCc2onc(-c3ccc(Cl)cc3)c21)NS(=O)(=O)c1ccc(Cl)cc1 [Compound #96, (E)-4-chloro-N-((2-(3-(4-chlorophenyl)-6,7-dihydrobenzo[d]isoxazol-4(5H)-ylidene)-2-fluoroethyl)carbamoyl)benzenesulfonamide] | > 20 | > 10000 | –
16 | O=C(NC/C(F)=C1\CCCc2onc(-c3ccc(Cl)cc3)c21)NS(=O)(=O)c1ccc(Cl)cc1 [Compound #97, (Z)-4-chloro-N-((2-(3-(4-chlorophenyl)-6,7-dihydrobenzo[d]isoxazol-4(5H)-ylidene)-2-fluoroethyl)carbamoyl)benzenesulfonamide] | > 20 | 4900 | –

Now those with a lower IC50 [1], led by results:

Row | IC50 [1] [µM] | Ki [2] [nM] | Ki ([2]; unit nM) [nM] | SMILES
17 | 0.005 | 3 | – | O=C(NC/C=C1/c2c(cnn2Cc2ccc(Cl)cc2Cl)CCC1F)NS(=O)(=O)c1ccc(Cl)cc1 (stereo not drawn) [Compound #73, (Z)-4-chloro-N-((2-(1-(2,4-dichlorobenzyl)-6-fluoro-1,4,5,6-tetrahydro-7H-indazol-7-ylidene)ethyl)carbamoyl)benzenesulfonamide]
18 | 0.004 | 1 | – | O=C(NC/C=C1\CCCc2cnn(-c3ccc(Br)cc3)c21)NS(=O)(=O)c1cc(Cl)c(Cl)s1 [Compound #75, (E)-N-((2-(1-(4-bromophenyl)-1,4,5,6-tetrahydro-7H-indazol-7-ylidene)ethyl)carbamoyl)-4,5-dichlorothiophene-2-sulfonamide]
19 | 0.009 | 2 | – | O=C(NC/C=C1\CCCc2cnn(-c3cccc(-c4ccc(F)cc4)c3)c21)NS(=O)(=O)c1cc(Cl)c(Cl)s1 [Compound #76, (E)-4,5-dichloro-N-((2-(1-(4′-fluoro-[1,1′-biphenyl]-3-yl)-1,4,5,6-tetrahydro-7H-indazol-7-ylidene)ethyl)carbamoyl)thiophene-2-sulfonamide]
20 | 0.01 | 1 | – | O=C(NC/C=C1\CCCc2cnn(-c3cccc4ccccc34)c21)NS(=O)(=O)c1cc(Cl)c(Cl)s1 [Compound #78, (E)-4,5-dichloro-N-((2-(1-(naphthalen-1-yl)-1,4,5,6-tetrahydro-7H-indazol-7-ylidene)ethyl)carbamoyl)thiophene-2-sulfonamide]
21 | 0.002 | – | 0.4 | O=C(NC/C=C1\CCCc2cnn(-c3ccc4ccccc4c3)c21)NS(=O)(=O)c1cc(Cl)c(Cl)s1 [Compound #79, (E)-4,5-dichloro-N-((2-(1-(naphthalen-2-yl)-1,4,5,6-tetrahydro-7H-indazol-7-ylidene)ethyl)carbamoyl)thiophene-2-sulfonamide]
22 | 0.005 | 1 | – | O=C(NC/C=C1\CCCc2cnn(-c3ccc(Cl)cc3Cl)c21)NS(=O)(=O)c1cc(Cl)c(Cl)s1 [Compound #84, (E)-4,5-dichloro-N-((2-(1-(2,4-dichlorophenyl)-1,4,5,6-tetrahydro-7H-indazol-7-ylidene)ethyl)carbamoyl)thiophene-2-sulfonamide]
23 | 0.004 | – | 0.4 | O=C(NC/C=C1\CCCc2cnn(-c3ccc(C(F)(F)F)cc3)c21)NS(=O)(=O)c1cc(Cl)c(Cl)s1 [Compound #85, (E)-4,5-dichloro-N-((2-(1-(4-(trifluoromethyl)phenyl)-1,4,5,6-tetrahydro-7H-indazol-7-ylidene)ethyl)carbamoyl)thiophene-2-sulfonamide]
24 | 0.017 | 6 | – | O=C(C/C(F)=C1\CCCc2cnn(Cc3ccc(Cl)cc3Cl)c21)NS(=O)(=O)c1cc(Cl)c(Cl)s1 [Compound #93, (Z)-3-(1-(2,4-dichlorobenzyl)-1,4,5,6-tetrahydro-7H-indazol-7-ylidene)-N-((4,5-dichlorothiophen-2-yl)sulfonyl)-3-fluoropropanamide]
